Measurements reported in US20030176456A1, “Methods for reducing alcohol cravings in chronic alcoholics” (priority 2001, published 2003).

What was measured:
[1] = tested on: high-alcohol drinking (HAD-1) rats; test: Operant self-administration, EtOH (and alternate-day sucrose); format: in vivo, rat
Protocol: Operant, Self-administration Apparatus, Training, and Drug Treatment Procedures Behavioral Testing Apparatus. Behavioral testing was conducted in 15 standard operant chambers (Coulbourn Instruments, Allentown, Pa.) equipped with two removable levers and two dipper fluid delivery systems enclosed in sound-attenuated cubicles as previously described (June et al., 1998b; 1998e). All dipper presentations provided a 1.5-sec access to a 0.1-ml dipper, followed by a 3-sec time out period. Above each lever, three stimulus lights (red, green and yellow) were present, and a stimulus delivery/reinforcer was indicated by illumination of the middle (green) stimulus light. Responses and reinforcements were recorded and controlled by a Dell computer using the 4.0 Coulbourn L2T2 operant software package.
HAD-1 Rats. To assess the capacity of βCCt to modulate EtOH responding in the VP, rats were trained to lever press for alcohol only (see below). However, an alternate-day access paradigm was employed to investigate the capacity of systemic injections of βCCt to modify EtOH and sucrose-maintained responding. […] In the VP study rats were initially trained to orally self-administer EtOH and water in daily 60 min sessions on a concurrent FRI schedule in a two-lever choice situation. After a period of stabilization on the FRI schedule, the response requirement was increased to a concurrent FR4 schedule and the water reinforcer was gradually eliminated from the protocol and replaced with EtOH. Thus, the VP HAD-1 rats responded concurrently for EtOH solutions on both levers. The VP HAD rats were then stabilized on this regimen for 3 weeks prior to any microinfusions. Responding was considered stable when responses were within ±20% of the average responses for five consecutive days.
Rats in, the systemic study were trained in a similar manner as the VP animals, except that after a 2 week stabilization period on the concurrently presented EtOH solutions, a series of preliminary studies were conducted to determine the sucrose concentration that produced response rates and profiles similar to that of EtOH during an alternate-day presentation schedule. Following this determination, rats were then stabilized on a regimen of 10% (v/v) EtOH on day 1, and 1% (w/v) sucrose on day 2. This alternate day paradigm continued until a two weeks. After this final stabilization period, the drug treatment phase began. Again, responding was considered stable when responses were within ±20% of the average responses for five consecutive days. The position of the levers and associated dippers for each reinforcer was alternated daily to control for the establishment of lever preference under all concurrent schedules when two different reinforcers were present.
βCCt was administered 15 min before the operant session to allow for optimal absorption and CNS distribution. βCCt was tested at doses of 1-40 mg/kg. The duration of the operant sessions was 60 min, however, subjects were tested at 24 and 48 hours post-drug administration to determine if any residual drug effects remained. A minimum of 72 and maximum of 96 hours was allocated between drug treatments to permit animals to return to baseline levels. This period prevented confounding of drug treatments due to residual effects. […] All systemic drug treatments were given in a randomized design.
The microinfusions were delivered immediately before the operant session with a Harvard infusion pump, during which time animals were able to move about freely in their home cages (for details see June et al., 2001). The injection cannula extended 1 mm beyond the tip of the guide cannulae. βCCt was dissolved in artificial cerebrospinal fluid (aCSF) (composition in mM: NaCl, 120; KCl, 4.8; KH2PO4, 1.2; MgSO4, 1.2; NaHCO3, 25; CaCl2, 2.5; d-glucose, 10). […]

[2] = tested on: HAD-1 rats; format: in vivo, rat; settings: i.p.; chlordiazepoxide 10 mg/kg, βCCt 15 mg/kg; 10 min open field
Protocol: (§1) Ambulatory count in the open field was recorded individually for 10 min in a plexiglas chamber (42 cm×42 cm 30 cm) using a Digiscan activity monitoring system (Acuscan Electronics, Columbus, Ohio, USA) (for details of the monitoring system see June et al., 1998d).
(§2) βCCt (15 mg/kg i.p.) and chlordiazepoxide (10 mg/kg i.p.) were administered 15 and 30 min, respectively, prior to the rats being placed in the open field. EtOH (1.25 g/kg) was given 5 min prior to placing the rats in the open field. When βCCt was given in combination with either chlordiazepoxide or EtOH, it was given 10 min prior to chlordiazepoxide and EtOH. As noted above, βCCt was administered in Tween-20 solution, while all other drugs were mixed in sterile saline. Animals were tested between 9 am-3 pm.
(§3) Ambulatory count in the open field was recorded individually for 10 min in a plexiglas chamber (42 cm×42 cm 30 cm) using a Digiscan activity monitoring system (Acuscan Electronics, Columbus, Ohio, USA) (for details of the monitoring system see June et al., 1998b).
(§4) βCCt (5-60 mg/kg i.p.) and chlordiazepoxide (2.5, 5, 10 mg/kg i.p.) were administered 15 and 30 min, respectively, prior to being placed in the plus maze or open field. EtOH (1.25 g/kg) was given 5 min prior to placing the rats in the open field. When βCCt was given in combination with either chlordiazepoxide or EtOH, it was given 10 min prior to chlordiazepoxide and EtOH. As noted above, βCCt was administered in Tween-20 solution, while all other drugs were mixed in sterile saline. Animals were tested between 9am-3 pm.

[3] = tested on: P rats; format: in vivo, rat; settings: i.p.; chlordiazepoxide 10 mg/kg, βCCt 15 mg/kg; 10 min open field
Protocol: as §1, §2, §3, §4

[4] = target: T1, α4 GABAA receptor (Homo sapiens, UniProt P18507+P48169); test: Modulation of GABA induced currents in HEK cells; format: cell-based; settings: 0.1 to 100 μM
T1 construct: expressed in transfected cells; host or cells: HEK cells
T1 sequence (P48169 36-554): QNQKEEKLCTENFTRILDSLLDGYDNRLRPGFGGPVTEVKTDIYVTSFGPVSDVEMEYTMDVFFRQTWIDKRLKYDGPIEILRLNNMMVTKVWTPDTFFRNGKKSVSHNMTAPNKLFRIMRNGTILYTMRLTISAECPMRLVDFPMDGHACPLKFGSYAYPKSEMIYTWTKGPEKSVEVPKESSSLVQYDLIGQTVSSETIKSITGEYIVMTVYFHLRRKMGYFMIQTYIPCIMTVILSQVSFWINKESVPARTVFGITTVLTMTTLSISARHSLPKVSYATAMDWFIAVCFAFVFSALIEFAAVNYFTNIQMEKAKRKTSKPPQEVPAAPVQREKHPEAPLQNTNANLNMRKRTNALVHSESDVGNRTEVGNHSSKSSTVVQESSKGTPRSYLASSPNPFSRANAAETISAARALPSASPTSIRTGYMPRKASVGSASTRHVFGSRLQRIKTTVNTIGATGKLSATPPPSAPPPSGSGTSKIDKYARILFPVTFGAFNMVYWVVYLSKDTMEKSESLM
T1 sequence (P28472 26-473 partner): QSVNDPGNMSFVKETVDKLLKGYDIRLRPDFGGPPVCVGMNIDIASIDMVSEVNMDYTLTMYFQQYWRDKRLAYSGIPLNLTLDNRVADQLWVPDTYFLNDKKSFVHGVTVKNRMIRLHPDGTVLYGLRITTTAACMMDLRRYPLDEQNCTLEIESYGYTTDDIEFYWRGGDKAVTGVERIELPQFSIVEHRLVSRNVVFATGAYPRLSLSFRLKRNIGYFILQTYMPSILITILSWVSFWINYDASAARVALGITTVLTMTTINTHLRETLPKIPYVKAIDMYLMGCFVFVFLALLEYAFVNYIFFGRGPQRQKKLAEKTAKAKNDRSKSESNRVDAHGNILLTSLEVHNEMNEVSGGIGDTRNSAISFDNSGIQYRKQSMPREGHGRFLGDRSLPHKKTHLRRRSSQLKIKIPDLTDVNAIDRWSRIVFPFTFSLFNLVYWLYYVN
T1 sequence (P18507 40-475): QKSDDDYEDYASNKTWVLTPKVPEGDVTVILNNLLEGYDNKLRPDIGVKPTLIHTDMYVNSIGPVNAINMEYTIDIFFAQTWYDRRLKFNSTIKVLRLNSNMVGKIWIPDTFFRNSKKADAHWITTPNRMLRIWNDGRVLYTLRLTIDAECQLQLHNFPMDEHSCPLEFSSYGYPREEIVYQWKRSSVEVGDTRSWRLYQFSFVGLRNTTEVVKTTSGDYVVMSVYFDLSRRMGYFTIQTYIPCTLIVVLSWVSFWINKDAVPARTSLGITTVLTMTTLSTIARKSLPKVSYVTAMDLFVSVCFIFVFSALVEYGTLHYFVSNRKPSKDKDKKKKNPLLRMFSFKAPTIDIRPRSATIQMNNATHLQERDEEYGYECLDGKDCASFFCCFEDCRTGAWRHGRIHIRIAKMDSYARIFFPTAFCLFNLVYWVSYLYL
Protocol: (§5) In this study, we assessed the functional capacity of βCCt to competitively antagonize the anxiolytic versus the sedative properties of the prototypical BDZ, chlordiazepoxide.
(§6) FIGS. 21-26 represent the molecular biology data in α1-α6 GABAA receptors. […] In other words, βCCt behaves like chlordiazepoxide at the anxiety receptors. It is important to note that these effects occur at 50-100 μM, and would most likely be observed at moderate doses.

[5] = target: T2, α5 GABAA receptor (Homo sapiens, UniProt P18507+P31644); test: Modulation of GABA induced currents in HEK cells; format: cell-based; settings: 0.1 to 100 μM
T2 construct: expressed in transfected cells; host or cells: HEK cells
T2 sequence (P31644 32-462): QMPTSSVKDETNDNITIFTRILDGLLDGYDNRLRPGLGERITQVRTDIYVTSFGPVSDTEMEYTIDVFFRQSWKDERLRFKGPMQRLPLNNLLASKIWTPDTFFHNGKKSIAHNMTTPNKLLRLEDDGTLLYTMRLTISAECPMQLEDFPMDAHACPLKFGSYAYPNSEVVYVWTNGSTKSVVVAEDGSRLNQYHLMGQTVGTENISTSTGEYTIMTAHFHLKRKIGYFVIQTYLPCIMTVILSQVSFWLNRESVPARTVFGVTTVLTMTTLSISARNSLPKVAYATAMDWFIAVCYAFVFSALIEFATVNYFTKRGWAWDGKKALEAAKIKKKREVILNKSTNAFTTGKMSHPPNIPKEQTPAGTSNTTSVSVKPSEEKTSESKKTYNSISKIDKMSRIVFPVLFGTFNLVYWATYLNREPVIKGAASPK
T2 sequence (P28472 26-473 partner): as the sequence (P28472 26-473 partner) above
T2 sequence (P18507 40-475): as the sequence (P18507 40-475) above
Protocol: as §5, §6

[6] = tested on: mice; settings: Cox et al., 1998; cited from earlier work
[7] = tested on: GABAA α2β3γ2 receptors; test: Xenopus oocyte expression assay, modulation of GABA current; format: cell-based, rat; settings: saturating 1-10 μM modulator with EC50 GABA (50 μM); mean±S.D.
[8] = target: T3, GABAA α1β3γ2 receptors (Rattus norvegicus, UniProt P18508+P62813); test: as above; format: cell-based; settings: saturating 1-10 μM modulator with EC50 GABA (50 μM); mean±S.D.
T3 construct: expressed in transfected cells; host or cells: Xenopus laevis oocytes injected with cRNA
T3 sequence (P62813 28-455): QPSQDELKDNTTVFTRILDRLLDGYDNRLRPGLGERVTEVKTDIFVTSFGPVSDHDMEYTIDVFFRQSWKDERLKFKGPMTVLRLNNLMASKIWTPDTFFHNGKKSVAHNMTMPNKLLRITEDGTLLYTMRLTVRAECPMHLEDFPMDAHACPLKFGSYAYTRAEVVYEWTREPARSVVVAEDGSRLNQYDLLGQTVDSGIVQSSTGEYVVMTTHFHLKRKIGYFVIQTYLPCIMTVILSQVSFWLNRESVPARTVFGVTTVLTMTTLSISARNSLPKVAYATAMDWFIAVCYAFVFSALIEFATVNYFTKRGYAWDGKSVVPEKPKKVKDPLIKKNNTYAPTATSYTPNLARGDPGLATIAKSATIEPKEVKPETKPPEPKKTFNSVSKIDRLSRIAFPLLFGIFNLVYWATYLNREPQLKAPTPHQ
T3 sequence (P63079 26-473 partner): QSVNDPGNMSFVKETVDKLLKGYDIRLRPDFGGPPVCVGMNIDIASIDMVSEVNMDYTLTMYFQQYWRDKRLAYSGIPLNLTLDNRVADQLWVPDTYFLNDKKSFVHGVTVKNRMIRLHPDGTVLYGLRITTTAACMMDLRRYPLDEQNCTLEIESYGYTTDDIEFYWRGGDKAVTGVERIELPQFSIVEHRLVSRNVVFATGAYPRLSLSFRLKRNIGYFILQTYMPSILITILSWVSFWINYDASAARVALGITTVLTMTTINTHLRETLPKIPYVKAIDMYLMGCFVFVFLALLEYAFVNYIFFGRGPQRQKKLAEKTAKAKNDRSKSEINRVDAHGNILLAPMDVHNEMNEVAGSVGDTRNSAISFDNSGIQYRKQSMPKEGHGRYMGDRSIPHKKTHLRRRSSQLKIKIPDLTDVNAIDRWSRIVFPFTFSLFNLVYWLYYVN
T3 sequence (P18508 39-466): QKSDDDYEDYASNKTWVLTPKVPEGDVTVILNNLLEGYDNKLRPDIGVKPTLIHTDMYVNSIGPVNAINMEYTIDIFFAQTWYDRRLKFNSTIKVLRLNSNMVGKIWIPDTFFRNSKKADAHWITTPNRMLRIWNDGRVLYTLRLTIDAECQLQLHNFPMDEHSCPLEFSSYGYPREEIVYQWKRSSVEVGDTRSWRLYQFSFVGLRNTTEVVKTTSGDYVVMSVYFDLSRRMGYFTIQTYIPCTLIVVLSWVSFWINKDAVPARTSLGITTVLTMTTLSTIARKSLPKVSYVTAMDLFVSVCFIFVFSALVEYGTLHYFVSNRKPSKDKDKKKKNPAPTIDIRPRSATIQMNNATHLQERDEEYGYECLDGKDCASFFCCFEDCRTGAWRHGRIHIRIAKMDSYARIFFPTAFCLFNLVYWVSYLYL

Structure (SMILES)	dose required to reduce sucrose reinforcer compared to alcohol ([1]; i.p.)	sucrose-maintained responding ([1]; i.p. 10 mg/kg)	EtOH-maintained responding ([1]; i.p. 1-10 mg/kg, alternate-day access)	reduction of EtOH responding 24 hr post-drug ([1]; unilateral VP infusion 2.5-7.5 μg, 24 hr post-drug administration)	EtOH-maintained responding ([1]; unilateral infusion 0.5-7.5 μg into VP)	alcohol-maintained responding ([1]; unilateral infusion into CPu/NACC)	locomotor activity, drug given alone [2]	locomotor activity, drug given alone [3]	activity at the α4 receptor in HEK cells [4]	intrinsic activity in HEK cells, α4 [4]	activity at the α5 receptor in HEK cells [5]	intrinsic activity in HEK cells, α5 [5]	response in pentylenetetrazole seizure model [6]	% of GABA response, α2 [7]	% of GABA response, α1 [8]
CC(C)(C)OC(=O)c1cc2c(cn1)[nH]c1ccccc12 [βCCt, β-carboline-3-carboxylate t-butyl ester]	four-fold higher dose	marked suppression	dose-dependently suppressed	54-63 % of control levels	dose-dependently reduced	completely ineffective	did not produce any intrinsic effects	did not produce any intrinsic effects	Moderate agonist activity	Intrinsic activity is seen	Agonist and inverse-agonist activity	Intrinsic activity is seen			
CCCOc1cc2c(cn1)[nH]c1ccccc12.Cl [3-PBC, 3-Propoxy-β-carboline hydrochloride]													“neutral” antagonist-like response	116±7%	113±4%
